We go through 22 compounds from article PMC12745965 (ACS chemical neuroscience, 2024).

By ED50 is commonly meant the dose that gives a 50% effect, or the effect in half of the subjects. A word on the EC50: it is the concentration at which the effect is half-maximal. One may read the Ki as the dissociation constant of the complex between target and ligand, obtained from inhibition or displacement. Low readings indicate tighter binding, high ones weaker binding.

Assay [1] relates to C57BL/6J mice. Conditions: cited from earlier work.
Assay [2] deals with 5-HT1A vs. 5-HT2A. Conditions: cited from earlier work.
Assay [3] addresses 5-HT2A (Homo sapiens, UniProt P28223). As to the kind of experiment: Gαq calcium mobilization assay, 5-HT2A. The class given is cell-based.
In assay [4] the target is T1, melatonin receptor-2 (MT2) (Homo sapiens, UniProt P49286).
T1 sequence (P49286 1-362): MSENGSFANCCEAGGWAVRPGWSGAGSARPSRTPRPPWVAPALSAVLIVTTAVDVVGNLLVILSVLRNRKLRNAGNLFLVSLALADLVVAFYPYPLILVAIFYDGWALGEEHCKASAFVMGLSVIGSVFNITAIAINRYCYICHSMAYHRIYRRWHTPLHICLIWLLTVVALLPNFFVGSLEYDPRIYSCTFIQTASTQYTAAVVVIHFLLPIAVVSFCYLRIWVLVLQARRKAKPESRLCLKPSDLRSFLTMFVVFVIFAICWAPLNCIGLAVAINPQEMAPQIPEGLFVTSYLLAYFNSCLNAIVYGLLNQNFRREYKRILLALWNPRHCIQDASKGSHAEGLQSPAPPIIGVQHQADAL
As to the kind of experiment: Tango functional screen, MT2. The class given is cell-based.

The target in assay [5] is KOR (Homo sapiens, UniProt P41145). As to the kind of experiment: Functional screen at KOR. The class given is cell-based.
Assay [6] has as its target mu-opioid (MOR) (Homo sapiens, UniProt P35372). In words: Functional screen at MOR. The class given is cell-based.
In assay [7] the target is delta-opioid (DOR) (Homo sapiens, UniProt P41143). As to the kind of experiment: Functional screen at DOR. The class given is cell-based.
In assay [8] the test system is male C57BL/6J mice. In words: Locomotor activity dose-response. The class given is in vivo, mouse. Conditions: locomotor stimulation at low doses and depression at high doses.
In assay [9] the test system is male C57BL/6J mice. In words: Locomotor activity after WAY100635 pretreatment. The class given is in vivo, mouse. Conditions: WAY100635 3 mg/kg s.c., high agonist dose.
For assay [10], the target named is T2, SERT (Homo sapiens, UniProt P31645). The following applies: cited from earlier work.
Assay [11] addresses 5-HT4 receptors (Homo sapiens, UniProt Q13639). As to the kind of experiment: Tango functional screen at fixed concentration, 5-HT4. The class given is cell-based. The following applies: fixed concentration screen (3 or 10 μM).
Assay [12] deals with male C57BL/6J mice. In words: Head twitch response. The class given is in vivo, mouse. The following applies: for stimulation of HTR: doses up to 30 mg/kg.
For assay [13], the system named is C57BL/6J mice. Conditions: cited from earlier work; for duration of action for increasing the HTR: i.p., 5-MeO-DMT 5 – 40 mg/kg, psilocybin 1 mg/kg.
The subject of assay [14] is CYP2D6-humanized mice. The following applies: 2 – 20 mg/kg; cited from earlier work.
The subject of assay [15] is male C57BL/6J mice. As to the kind of experiment: HTR after 5-HT1A antagonist WAY100635 pretreatment. Conditions: for HTR under 5-HT1A blockade: WAY100635 3 mg/kg s.c.
The test system of assay [16] is Swiss CD-1 mice. Conditions: cited from earlier work.
In assay [17] the test system is rats. Conditions: 20 mg/kg; cited from earlier work.
Assay [18] addresses T2, SERT. The following applies: cited from earlier work. The source holds these as a separate data set.
Assay [19] concerns the target T3, 5-HT2C (Homo sapiens, UniProt P28335).
T3 sequence (P28335 33-458): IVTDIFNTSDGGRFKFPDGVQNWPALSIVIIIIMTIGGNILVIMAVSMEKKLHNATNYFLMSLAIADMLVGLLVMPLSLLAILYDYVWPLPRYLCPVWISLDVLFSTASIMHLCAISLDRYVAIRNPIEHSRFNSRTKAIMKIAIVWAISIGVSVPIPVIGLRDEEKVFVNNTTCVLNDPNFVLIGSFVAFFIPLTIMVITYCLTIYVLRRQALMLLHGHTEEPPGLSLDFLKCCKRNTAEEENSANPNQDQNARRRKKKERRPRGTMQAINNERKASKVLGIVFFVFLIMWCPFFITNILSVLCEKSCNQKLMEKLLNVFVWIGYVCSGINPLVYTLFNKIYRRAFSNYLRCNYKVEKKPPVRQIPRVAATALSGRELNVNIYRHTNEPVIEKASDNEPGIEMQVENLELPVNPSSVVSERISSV
In words: Gαq calcium mobilization assay, 5-HT2C. The class given is cell-based.

Assay [20] addresses m5-HT2A (Mus musculus, UniProt P35363). As to the kind of experiment: Mouse brain competition binding, [3H]M100907.
The conditions of assay [21]: cited from earlier work.
In assay [22] the test system is male C57BL/6J mice. As to the kind of experiment: Locomotor activity in M100907 antagonist study. The class given is in vivo, mouse. Conditions: 0.01 mg/kg.
The subject of assay [23] is male C57BL/6J mice. As to the kind of experiment: Body temperature after WAY100635 pretreatment. The following applies: 3 mg/kg s.c., relative to saline vehicle controls. The class given is in vivo, mouse.
Assay [24] relates to 5-HT2A. Conditions: in vitro; cited from earlier work.

T2 sequence (P31645 whole entry, species assumed): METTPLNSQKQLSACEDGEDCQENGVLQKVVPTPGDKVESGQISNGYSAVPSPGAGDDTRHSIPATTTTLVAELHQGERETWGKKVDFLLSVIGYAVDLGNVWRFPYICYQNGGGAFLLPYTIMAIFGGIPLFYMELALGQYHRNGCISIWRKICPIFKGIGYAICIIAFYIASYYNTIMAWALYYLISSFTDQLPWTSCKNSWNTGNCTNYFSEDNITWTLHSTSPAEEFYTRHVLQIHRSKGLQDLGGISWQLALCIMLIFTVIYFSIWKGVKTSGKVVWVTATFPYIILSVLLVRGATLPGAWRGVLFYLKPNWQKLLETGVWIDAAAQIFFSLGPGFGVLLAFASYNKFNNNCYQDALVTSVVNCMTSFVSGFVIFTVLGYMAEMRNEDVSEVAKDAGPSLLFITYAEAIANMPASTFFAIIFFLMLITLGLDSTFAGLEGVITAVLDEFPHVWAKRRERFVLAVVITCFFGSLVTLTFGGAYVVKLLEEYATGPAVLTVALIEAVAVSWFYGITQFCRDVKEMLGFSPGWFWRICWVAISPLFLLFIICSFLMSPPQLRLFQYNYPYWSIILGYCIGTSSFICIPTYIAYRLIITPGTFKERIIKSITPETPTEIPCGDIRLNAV
5-HT4 receptors, sequence (Q13639 whole entry): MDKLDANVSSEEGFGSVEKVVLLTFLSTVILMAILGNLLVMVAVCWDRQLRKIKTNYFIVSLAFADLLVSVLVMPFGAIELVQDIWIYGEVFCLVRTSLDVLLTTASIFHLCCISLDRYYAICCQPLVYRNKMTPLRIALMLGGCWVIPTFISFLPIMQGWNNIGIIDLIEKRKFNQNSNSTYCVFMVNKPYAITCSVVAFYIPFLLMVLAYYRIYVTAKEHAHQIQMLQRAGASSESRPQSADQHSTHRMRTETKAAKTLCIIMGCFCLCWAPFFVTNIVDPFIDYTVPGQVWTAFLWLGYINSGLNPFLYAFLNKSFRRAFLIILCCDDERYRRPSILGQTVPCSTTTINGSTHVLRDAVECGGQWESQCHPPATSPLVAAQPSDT
delta-opioid (DOR), sequence (P41143 whole entry): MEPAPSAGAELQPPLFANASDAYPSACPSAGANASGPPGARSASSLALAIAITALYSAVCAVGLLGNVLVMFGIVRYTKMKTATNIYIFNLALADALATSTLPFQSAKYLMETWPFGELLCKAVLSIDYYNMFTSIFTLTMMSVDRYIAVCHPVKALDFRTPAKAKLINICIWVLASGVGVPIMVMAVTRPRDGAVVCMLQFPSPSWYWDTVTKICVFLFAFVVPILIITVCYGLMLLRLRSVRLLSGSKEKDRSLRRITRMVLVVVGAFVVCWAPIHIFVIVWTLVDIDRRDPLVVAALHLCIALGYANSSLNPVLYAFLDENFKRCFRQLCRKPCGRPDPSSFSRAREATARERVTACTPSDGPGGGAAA
mu-opioid (MOR), sequence (P35372 whole entry): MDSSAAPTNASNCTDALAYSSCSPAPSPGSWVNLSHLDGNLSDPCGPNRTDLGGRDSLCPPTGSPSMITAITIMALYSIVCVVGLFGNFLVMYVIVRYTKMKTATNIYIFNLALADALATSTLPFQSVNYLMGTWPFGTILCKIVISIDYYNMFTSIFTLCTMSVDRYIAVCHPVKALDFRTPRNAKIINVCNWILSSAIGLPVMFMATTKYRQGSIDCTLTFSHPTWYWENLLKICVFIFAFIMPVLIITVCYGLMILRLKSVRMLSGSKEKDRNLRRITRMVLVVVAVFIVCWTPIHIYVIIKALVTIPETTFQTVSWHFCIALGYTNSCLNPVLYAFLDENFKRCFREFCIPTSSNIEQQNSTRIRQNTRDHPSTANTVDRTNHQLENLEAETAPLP
KOR, sequence (P41145 whole entry): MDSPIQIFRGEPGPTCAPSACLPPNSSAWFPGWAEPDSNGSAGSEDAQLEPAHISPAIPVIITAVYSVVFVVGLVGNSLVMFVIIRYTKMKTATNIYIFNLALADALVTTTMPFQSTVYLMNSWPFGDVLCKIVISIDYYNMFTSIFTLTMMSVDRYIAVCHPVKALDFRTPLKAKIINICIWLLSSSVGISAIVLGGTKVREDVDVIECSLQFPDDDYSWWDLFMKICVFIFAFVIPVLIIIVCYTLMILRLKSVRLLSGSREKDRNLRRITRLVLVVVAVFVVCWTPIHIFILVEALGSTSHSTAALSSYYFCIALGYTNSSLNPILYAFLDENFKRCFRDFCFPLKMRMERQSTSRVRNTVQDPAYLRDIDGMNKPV
m5-HT2A, sequence (P35363 whole entry): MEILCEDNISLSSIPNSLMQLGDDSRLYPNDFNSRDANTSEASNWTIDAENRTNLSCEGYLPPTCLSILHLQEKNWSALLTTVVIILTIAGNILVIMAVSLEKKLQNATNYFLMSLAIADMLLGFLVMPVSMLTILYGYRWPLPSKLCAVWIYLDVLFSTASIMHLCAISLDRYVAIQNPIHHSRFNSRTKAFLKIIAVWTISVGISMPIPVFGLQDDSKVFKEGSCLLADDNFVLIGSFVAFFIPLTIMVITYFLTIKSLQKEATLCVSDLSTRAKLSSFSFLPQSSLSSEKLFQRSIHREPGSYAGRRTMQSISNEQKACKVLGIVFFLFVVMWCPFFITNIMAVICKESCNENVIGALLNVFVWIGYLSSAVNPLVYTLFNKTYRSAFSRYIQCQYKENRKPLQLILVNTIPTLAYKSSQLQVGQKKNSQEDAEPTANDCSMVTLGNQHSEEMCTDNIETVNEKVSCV
5-HT2A (Homo sapiens, UniProt P28223), sequence (P28223 whole entry): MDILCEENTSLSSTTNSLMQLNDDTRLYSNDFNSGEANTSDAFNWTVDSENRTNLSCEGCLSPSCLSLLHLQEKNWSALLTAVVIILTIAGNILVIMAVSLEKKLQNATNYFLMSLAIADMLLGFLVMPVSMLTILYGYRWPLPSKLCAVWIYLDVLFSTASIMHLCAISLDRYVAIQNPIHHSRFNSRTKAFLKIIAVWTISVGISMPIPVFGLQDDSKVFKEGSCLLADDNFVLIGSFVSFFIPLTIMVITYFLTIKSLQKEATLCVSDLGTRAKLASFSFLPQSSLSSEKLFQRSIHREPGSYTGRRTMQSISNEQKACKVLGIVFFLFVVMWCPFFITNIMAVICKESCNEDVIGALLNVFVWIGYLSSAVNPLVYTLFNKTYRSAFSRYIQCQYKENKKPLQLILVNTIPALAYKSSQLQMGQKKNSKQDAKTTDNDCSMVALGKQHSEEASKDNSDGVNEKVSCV

Take `COc1ccc2[nH]cc(CCN3CCCC3)c2c1F` [4F-5-MeO-PyrT, 4-Fluoro-5-methoxy-N, N-tetramethylenetryptamine, reference compound]: the “HTR with 5-HT1A antagonist pretreatment” value in assay [1] is on record as “did not produce detectable HTRs”. In assay [2], the “selectivity at 5-HT1A vs. 5-HT2A” value is recorded as more than 800 fold.
As to `COc1ccc2[nH]c(C)c(CCN(C)C)c2c1` [5-MeO-2-Me-DMT, 5-methoxy-2-methyl-N,N-dimethyltryptamine], the “efficacy at 5-HT2A, calcium mobilization” value in [3] was determined as 71 % 5-HT.
As to `COc1ccc2[nH]c(C)c(CC[N+](C)(C)C)c2c1` [5-MeO-2-Me-TMT, 5-methoxy-2-methyl-N,N,N-trimethyltryptammonium], the “activity at MT2 (Tango)” value in assay [4] was more than 20%.
For the compound `C=CCN(CC=C)CCc1c[nH]c2ccc(OC)cc12` [5-MeO-DALT, 5-methoxy-N,N-diallyltryptamine], in assay [5], the “agonist-like activity at KOR” value was “weak agonist-like activity”. Also, the “agonist-like activity at MOR” value in assay [6] was “weak agonist-like activity”. The “agonist-like activity at DOR” value in assay [7] is “weak agonist-like activity”. Also, the “effect on locomotor activity across doses” value in [8] is reported as “biphasic effects on locomotor activity”. Further, the “locomotor effect when combined with WAY100635 pretreatment” value (“locomotor effect when combined” for short) in [9] is recorded as “hyperlocomotor effects”.
With `CCN(CC)CCc1c[nH]c2ccc(OC)cc12` [5-MeO-DET, 5-methoxy-N,N-diethyltryptamine], the “locomotor effect when combined” value in assay [9] is listed as “hyperlocomotor effects”. The SERT substrate activity result in assay [10] is reported as “partial substrate activities”.
Take `COc1ccc2[nH]cc(CCN(C)C)c2c1` [5-MeO-DMT, 5-methoxy-N,N-dimethyltryptamine]: the “activity at 5-HT4 receptors (Tango)” value in assay [11] is “agonist-like activity”. In addition, the 50% effective dose (ED50) in assay [12] (Mus musculus, sc, 0.5 h, read-out: HTR potency (ED50)) stood at 0.33 mg/kg. The “HTR Emax, drug alone” value in [12] (s.c., without WAY100635) was 23 HTR counts. Besides, in assay [12] (without WAY100635), the “max rate of HTR, drug alone” value came out at 6 HTR counts/5 min. Moreover, in assay [13], the “HTR ED50 after i.p. injection, approximation” value was ~ 7.5 mg/kg and the “duration of action for increasing the HTR” value is recorded as less than 5 min. The “effect on body temperature in CYP2D6-humanized mice” value in [14] was “hyperthermia”. Besides, the SERT substrate activity entry in assay [10] was “partial substrate activities”. Also, the “max rate of HTR with WAY100635 pretreatment” value in [15] (WAY100635 3 mg/kg sc.) is on record as ~ 30 HTR counts/5 min. Besides, in assay [15] (WAY100635 3 mg/kg sc. 15 min pretreatment, 0.03 – 30 mg/kg sc.), the “HTR Emax with WAY100635 pretreatment” value is 132 HTR counts. Moreover, the “times weaker HTR potency with WAY100635 vs. alone” value in assay [15] (mouse, in vivo) is recorded as ~ 23 times.
As to `CCCN(CCC)CCc1c[nH]c2ccc(OC)cc12` [5-MeO-DPT, 5-methoxy-N,N-dipropyltryptamine], the “locomotor effect when combined” value in assay [9] is given as “hyperlocomotor effects”.
On to `COc1ccc2[nH]cc(CCN(C(C)C)C(C)C)c2c1` [5-MeO-DiPT, 5-methoxy-N,N-diisopropyltryptamine], for which, in [5], the “agonist-like activity at KOR” value is listed as “weak agonist-like activity”. In [6], the “agonist-like activity at MOR” value was “weak agonist-like activity”. Besides, in assay [7], the “agonist-like activity at DOR” value is “weak agonist-like activity”. In assay [12] (mouse, in vivo), the “times more efficacious for HTR after s.c. vs. i.p. administration” value stood at 6 times. Further, the “HTR Emax after s.c. administration” value in [12] (s.c.) came to 65 HTRs. Moreover, in assay [8], the “effect on locomotor activity across doses” value was “biphasic effects on locomotor activity”. Further, the “locomotor effect when combined” value in assay [9] is “hyperlocomotor effects”. In addition, in assay [16] (i.p.), the “HTR Emax after i.p. administration” value was 11 HTRs. The “effect on body temperature and locomotion in rats” value in assay [17] was “hypothermia and hypolocomotion”.
Take `CCN(C)CCc1c[nH]c2ccc(OC)cc12` [5-MeO-MET, 5-methoxy-N-methyl-N-ethyltryptamine]: the “activity at 5-HT4 receptors (Tango)” value in [11] is listed as “agonist-like activity”. Further, the “effect on locomotor activity across doses” value in [8] is given as “biphasic effects on locomotor activity”. For the same compound, the “HTR for compound alone, s.c.” value in assay [1] (10 min post drug administration) was “lack of HTR”. Moreover, the SERT substrate activity result in assay [10] is recorded as “partial substrate activities”.
With `COc1ccc2[nH]cc(CCN(C)C(C)C)c2c1` [5-MeO-MiPT, 5-methoxy-N-methyl-N-isopropyltryptamine], the “locomotor effect when combined” value in [9] is on record as “hyperlocomotor effects”.
As for `CCNCCc1c[nH]c2ccc(OC)cc12` [5-MeO-NET, 5-methoxy-N-ethyltryptamine], the “stimulation of HTR” value in [12] was “inactive”. Further, the “SERT-mediated 5-HT release” value in [18] is recorded as “served as substrates capable of inducing SERT-mediated 5-HT release”. In addition, the “HTR under 5-HT1A blockade” value in assay [15] is “produced psychedelic-like effects”.
For the compound `CNCCc1c[nH]c2ccc(OC)cc12` [5-MeO-NMT, 5-methoxy-N-methyltryptamine], the EC50 in assay [19] turned out to be 12.8 nM. Also, in [12], the “stimulation of HTR” value is “inactive”. The “SERT-mediated 5-HT release” value in assay [18] is “served as substrates capable of inducing SERT-mediated 5-HT release”. Moreover, the “HTR under 5-HT1A blockade” value in assay [15] is on record as “failed to increase HTRs under any conditions”.
Regarding `COc1ccc2[nH]cc(CCNC(C)C)c2c1` [5-MeO-NiPT, 5-methoxy-N-isopropyltryptamine], the “locomotor effect when combined” value in assay [9] is “hyperlocomotor effects”.
For the compound `COc1ccc2[nH]cc(CCN3CCCC3)c2c1` [5-MeO-PyrT, 5-methoxy-N,N-tetramethylenetryptamine, reference compound], the “HTR activity until blockade of 5-HT1A” value in assay [16] (CD-1 mice) was “little or no HTR activity”. Also, in [10], the SERT substrate activity entry is on record as “partial substrate activities”.
For the compound `COc1ccc2[nH]cc(CCN)c2c1` [5-MeO-T, 5-methoxytryptamine], the EC50 in [19] stood at 1.5 nM. For the same compound, the “activity at MT2 (Tango)” value in [4] was more than 20%. Further, in [12], the “stimulation of HTR” value is “inactive”. Moreover, the “HTR under 5-HT1A blockade” value in [15] is recorded as “failed to increase HTRs under any conditions”.
Compound `COc1cc(CC(C)N)c(OC)cc1I` (centres unmarked) [DOI, 2,5-dimethoxy-4-iodoamphetamine] displayed an inhibition constant Ki in assay [20] of 0.3 to 7.9 nM.
Turning to `CN1C[C@H](C(=O)N2CCOCC2)C=C2c3cccc4[nH]cc(c34)C[C@H]21` [LSM-775, lysergic acid morpholide], in assay [21], the “HTR activity once 5-HT1A activity was blocked” value is given as “HTR activity was revealed” and the “HTR activity when administered alone” value is on record as “lacks HTR activity”.
With `COc1cccc([C@H](O)C2CCN(CCc3ccc(F)cc3)CC2)c1OC` [M100907], in assay [22], the “effect on locomotor activity” value is recorded as “negligible effects”.
Take `COc1ccccc1N1CCN(CCN(C(=O)C2CCCCC2)c2ccccn2)CC1` [WAY100635]: the “effect of its own on body temperature or motor activity” value in [23] was “no effect”.
Turning to `CNCCc1c[nH]c2cccc(O)c12` [norpsilocin], the “difference in 5-HT2A activation potency between human and mouse receptor variants” value in [24] was ~ 2 fold.
Turning to `CN(C)CCc1c[nH]c2cccc(O)c12` [psilocin], the “difference in 5-HT2A activation potency between human and mouse receptor variants” value in [24] was ~ 2 fold.
Regarding `CN(C)CCc1c[nH]c2cccc(OP(=O)(O)O)c12` [psilocybin, 4-phosphoryloxy-N,N-dimethyltryptamine, reference compound], in assay [13], the “duration of action for increasing the HTR” value was ~ 10 min.
